Reference: ChEMBL document CHEMBL1145998, “Thermal denaturation: a method to rank slow binding, high-affinity P38alpha MAP kinase inhibitors” (J Med Chem, 2003)

Experiments:
[1] = target: T1, Mitogen-activated protein kinase 14 (Homo sapiens, UniProt Q16539); assay: Dissociation constant at Tm against human Mitogen-activated protein kinase p38 alpha
[2] = target: T1, Mitogen-activated protein kinase 14; assay: Dissociation constant at Tref against human Mitogen-activated protein kinase p38 alpha
[3] = target: T1, Mitogen-activated protein kinase 14; assay: Dissociation constant fit from ITC data against human Mitogen-activated protein kinase p38 alpha (constant fit)
[4] = target: T1, Mitogen-activated protein kinase 14; assay: Dissociation constant at Tm against human Mitogen-activated protein kinase p38 alpha (fluorescence exchange curve)

T1 sequence (Q16539 whole entry): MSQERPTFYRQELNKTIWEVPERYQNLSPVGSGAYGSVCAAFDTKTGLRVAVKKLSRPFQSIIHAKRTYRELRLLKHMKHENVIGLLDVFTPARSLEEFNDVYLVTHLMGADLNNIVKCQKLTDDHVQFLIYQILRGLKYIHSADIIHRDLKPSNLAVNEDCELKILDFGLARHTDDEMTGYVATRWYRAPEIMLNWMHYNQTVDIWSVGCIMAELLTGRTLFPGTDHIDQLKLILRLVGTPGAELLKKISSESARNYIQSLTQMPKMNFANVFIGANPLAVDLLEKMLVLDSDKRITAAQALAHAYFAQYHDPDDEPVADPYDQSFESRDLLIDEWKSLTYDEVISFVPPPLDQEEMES

| SMILES | Kd [1] [nM] | Kd [2] [nM] | Kd [3] [nM] | Kd [4] [nM] |
| --- | --- | --- | --- | --- |
| O=C(Nc1ccc(OCCN2CCOCC2)c2ccccc12)Nc1ccnn1-c1ccccc1 | 6070 | 2400 | 1180 |  |
| Cn1nc(C(C)(C)C)cc1NC(=O)Nc1ccc(OCCN2CCOCC2)c2ccccc12 | 210 | 25.7 | 10 |  |
| CC(C)c1cc(NC(=O)Nc2ccc(OCCN3CCOCC3)c3ccccc23)n(-c2ccccc2)n1 | 62.8 | 3.4 |  | 6 |
| Cc1ccc(-n2nc(C(C)(C)C)cc2NC(=O)Nc2ccccc2)cc1 | 177 | 16.8 | 5 | 21 |
| CC(C)(C)c1cc(NC(=O)Nc2ccc(OCCN3CCOCC3)c3ccccc23)n(-c2ccccc2)n1 | 5.3 | 0.231 |  | 0.09 |
| Cc1ccc(-n2nc(C(C)(C)C)cc2NC(=O)Nc2cccc3ccccc23)cc1 | 118 | 10.6 |  | 1 |
| CC(C)(CO)c1cc(NC(=O)Nc2ccc(OCCN3CCOCC3)c3ccccc23)n(-c2ccccc2)n1 | 493 | 56.4 | 20 | 36 |
